Measured values as given in US11738065B2, “Polypeptides and analogues thereof for use in the treatment of diabetes and bone disorders” (UNIVERSITY OF ULSTER, priority 2015, dated 2023).
Where no end group is shown, it is not given here. [ ]: non-standard residue; d: D form.

How the values were obtained:
high fat fed mice [1] = experiment: 42 day once daily study in high fat fed mice (body weight, composition, food intake, non-fasting glucose); assay type: in vivo; conditions: 25 nmol/kg once daily, 42 days
Text: FIG. 10 illustrates body weight as measured for 3 days before and 42 days during (indicated by black horizontal bar) once daily treatment with saline vehicle (0.9% w/v NaCl), GIP/Xenin hybrid, GIP/Xenin hybrid Asp and GIP/Xenin hybrid Glu (each peptide at 25 nmol/kg bw). Values represent means±SEM for 5 mice;
FIG. 11A-11B illustrate (FIG. 11A) % Fat mass and (FIG. 11B) % Lean mass as measured by DEXA scanning in high fat fed mice following 42 days treatment with GIP/Xenin hybrid, GIP/Xenin hybrid Asp and GIP/Xenin hybrid Glu. Values represent means±SEM for 3-5 mice;
FIG. 12 illustrates cumulative energy intake as measured for 3 days before and 42 days (indicated by black horizontal bar) during once daily treatment with saline vehicle (0.9% w/v NaCl), GIP/Xenin hybrid, GIP/Xenin hybrid Asp and GIP/Xenin hybrid Glu (each peptide at 25 nmol/kg bw). Values represent means±SEM for 3-5 mice. ^ΔP<0.05, ^ΔΔP<0.01, ^ΔΔΔP<0.001 compared to saline control;
FIG. 13 illustrates non fasting blood glucose as measured for 3 days before and 42 days during (indicated by black horizontal bar) once daily treatment with saline vehicle (0.9% w/v NaCl), GIP/Xenin hybrid, GIP/Xenin hybrid Asp and GIP/Xenin hybrid Glu (each peptide at 25 nmol/kg bw). Values represent means±SEM for 5 mice; […]

SaOS-2 cells [2] = experiment: TGF-β release from SaOS-2 cells; assay type: cell-based, Human; conditions: 1e-12-1e-6 M, 8 hours
Procedure: Human osteoblast SaOS-2 cells [sourced from The European Collection of Cell Cultures (ECACC)] were seeded at a density of 2e5 cells/well in 24 well plates [Nunc, Roskilde, Denmark]. The cells were incubated in media [Life Technologies] supplemented with 10% FBS. Before adding test peptides of the invention, the media were changed with fresh 0.1% FBS-containing media 24 h previously. On the day of experimentation, media were removed and 1 ml of respective peptides of the invention GIP/Xenin, GIP/Xenin Asp and GIP/Xenin Glu [(DAla2)GIP/xenin-8-Gln, (DAla2)GIP/xenin-8-Gln(L-Asp), and (DAla2)GIP/xenin-8-Gln(L-Glu) respectively] (1e-12-1e-6 M) were added to each well. The plates were then incubated at 37° C. for a period of 8 hours. After incubation, media was collected and TGF-β released in the supernatant measured using a TGF-β Immunoassay kit (Quantikine, R&D Systems) according to the manufacturer's instructions. The concentration of TGF-β was calculated from a standard curve of recombinant human TGF-β ranging from […].

SaOS-2 cells [3] = experiment: IGF-1 release from SaOS-2 cells; assay type: cell-based, Human; conditions: 1e-12-1e-6 M, 8 hours
Procedure: SaOS-2 cells were seeded at a density of 2e5 cells/well in 6-well plates in 10% FBS containing media. Media were changed 24 hours prior to experimentation with 0.1% FBS. Media was then removed, followed by an addition of 1 ml of test peptides of the invention (1e-12-1e-6 M). Plates were incubated at 37° C. for 8 hours. After incubation, media was collected and IGF-1 released in the supernatant was measured using IGF-1 Immunoassay kit (Quantikine, R&D Systems) according to the manufacturer's instructions. The concentration of IGF-1 in the samples was determined from a standard curve of recombinant human IGF-1 in the range of 0-60 ng/ml.

SaOS-2 cells [4] = experiment: cAMP production in SaOS-2 cells; assay type: cell-based, Human; conditions: 60 min, 200 μM IBMX
Procedure: SaOS-2 cells were seeded at a density of 5e4 cells in 96-well plates. Cells were cultured in α-MEM 1× media supplemented with 10% FBS for 24 hours in order to allow attachment to the plate. Before the experiment, cells were washed with Hank's Balanced Salt Solution (HBSS). Cells were then incubated with various concentrations (1e-12-1e-6 M) of test peptides of the invention supplemented with 200 μM of 3-isobutyl-1-methylxanthine (IBMX). Plates were then incubated for 60 minutes at 37° C. Following this step, cells were washed 3 times with 150 μl PBS. Cell lysis was performed with 150 μl cell lysis buffer (R&D Systems) and a freeze (−20° C.)-thaw (37° C.) cycle was carried out. The contents were then collected into 500 μl tubes and centrifuged at 600 rpm for 10 min (4° C.). The supernatant was collected and cAMP was measured using a cAMP assay kit (R&D Systems) according to the manufacturer's instructions. The concentration of cAMP was calculated from a standard curve of cAMP ranging from 0 to 240 pmol/ml.

high fat fed mice [5] = experiment: DEXA bone mineral density and content after 42 days treatment; assay type: in vivo; conditions: P<0.05 and P<0.01 respectively
Procedure: The DEXA (dual energy X-ray absorptiometry) analysis [Lunar PIXImus, Inside Outside Sales] was performed on unconscious mice and the whole body was scanned. Various parameters like bone mineral density (BMD), bone mineral content (BMC), lean mass, fat mass and percentage of total fat were measured according to the manufacturer's instructions.

high fat fed mice [6] = experiment: Glucose tolerance test after 42 days treatment; assay type: in vivo
Procedure: FIG. 14A-14B illustrate tests conducted after once daily treatment with saline, GIP/Xenin hybrid, GIP/Xenin hybrid Asp and GIP/Xenin hybrid Glu for 42 days. (FIG. 14A) Blood glucose before and after i.p injection of glucose (18 mmol/kg bw) alone in 18 hr fasted mice. (FIG. 14B) AUC values for blood glucose for 0-105 min are shown in insets. Values represent means±SEM for 6-7 mice. *P<0.05, **P<0.01 and ***P<0.001 compared to saline control;

high fat fed mice [7] = experiment: Microcomputed tomography of tibia trabecular and cortical bone after 42 days treatment; assay type: in vivo; conditions: microCT
Procedure: The tibia was used to investigate trabecular and cortical bone microstructural morphology by microCT analysis with a Skyscan 1172 microtomograph (Bruker, Kontich, Belgium) equipped with an X-ray tube working at 69 kV/100 μA. The pixel size was fixed at 8.3 μm, the rotation step at 0.25° and exposure was performed with a 0.5-mm aluminum filter. Bone mass and morphometry parameters were calculated with the CTan software (release 1.11.4.2, Bruker). The trabecular parameters were assessed at the volume of interest (VOI), located 1 mm below the growth plate and spanning 2.5 mm in height. Trabecular bone volume (BV/TV, in %), trabecular number (Tb.N, in 1/mm) and trabecular separation (Tb.Sp, in μm) were measured according to guidelines and nomenclature proposed by the American Society for Bone and Mineral Research. Cortical parameters were determined at the midshaft tibia with a lab-made routine using ImageJ. […] (Ma.Ar), cortical area (Ct.Ar), total area (Tt.Ar), cortical thickness (Ct.Th, in μm) and cross-sectional moment of inertia (J in mm4) were also measured according to guidelines and nomenclature on bone histomorphometry proposed by the American Society for Bone and Mineral Research.

high fat fed mice [8] = experiment: Insulin tolerance test after 42 days treatment; assay type: in vivo; conditions: insulin 25 U/kg i.p., non-fasted
Procedure: FIG. 15A-15B illustrate Blood glucose (FIG. 15A) and blood glucose AUC (FIG. 15B) values for 0-105 min (shown in inset) following 42 days treatment with saline, GIP/Xenin hybrid, GIP/Xenin hybrid Asp and GIP/Xenin hybrid Glu (each peptide at 25 nmol/kg bw), and subsequent insulin (25 U/kg bw) injection intraperitoneally (at t=0) in non-fasted mice. Values represent means±SEM for 5 mice. *P<0.05, **P<0.01 and ***P<0.001 compared to saline control;

high fat fed mice [9] = experiment: Three-point bending of bone after 42 days treatment; assay type: in vivo
Procedure: Femur and tibia bones were extracted at the end of the experiment using a scalpel and fine scissors, soft tissue removed and stored in 70% ethanol. Three-point bending strength was measured with a constant span length of 10 mm. Femurs were positioned horizontally with the anterior surface facing upwards, centered on the support and the pressing force was applied vertically to the midshaft of the bone. Each bone was tested with a loading speed of 2 mm/min until failure with a 90 N load cell. The load-time curve obtained was converted into a load-displacement curve by the MTS testSuite TW software (MTS, Créteil, France). Ultimate load and ultimate displacement were respectively defined as the maximum load and maximum displacement recorded before break-down of the bone. Stiffness was calculated as the slope of the elastic deformation of the bone. The total absorbed energy was defined as the total area under the load-displacement curve and represents the total energy absorbed by the midshaft femur. The yield was defined as the load necessary to initiate the transformation from elastic to plastic deformation. The post-yield energy was defined as the area under the load-displacement curve from yield until failure and represents the energy absorbed by bone during plastic deformation.

| Substance | Body weight, fat and lean mass, food intake (high fat fed mice [1]) | TGF-β release from SaOS-2 cells (SaOS-2 cells [2]) | IGF-1 release from SaOS-2 cells (SaOS-2 cells [3]) | Lowest effective concentration for cAMP production (SaOS-2 cells [4]) [nM] | Tibia bone mineral density (high fat fed mice [5]) | Blood glucose overall AUC after glucose challenge (high fat fed mice [6]; 0-105 min, glucose 18 mmol/kg) | Blood glucose at 30, 60 and 105 min after glucose challenge (high fat fed mice [6]; glucose 18 mmol/kg i.p.) | Cortical bone area, thickness and moment of inertia / structural properties of cortical bone (high fat fed mice [7]) | Blood glucose concentrations after glucose challenge (high fat fed mice [6]; glucose 18 mmol/kg) | Hypoglycaemic response to exogenous insulin (high fat fed mice [8]) | Bone ultimate load and stiffness (high fat fed mice [9]) |
| --- | --- | --- | --- | --- | --- | --- | --- | --- | --- | --- | --- |
| TYR-(d)ALA-GLU-GLY-THR-PHE-ILE-SER-ASP-TYR-SER-ILE-ALA-MET-HIS-PRO-GLN-GLN-PRO-TRP-ILE-LEU-GLY-ALA-ALA-ASP-ASP-ASP-ASP-ASP-ASP (Y[dA]EGTFISDYSIAMHPQQPWILGAADDDDDD; also: Gln side-chain L-Asp modification; listed as Homo sapiens) [GIP/Xenin Asp] | no significant change | dose-dependently stimulated | dose-dependently stimulated | 10 | reduced | significant (P<0.05) reduction in overall AUC measures | significantly (P<0.01 to P<0.001) | – | – | – | – |
| TYR-(d)ALA-GLU-GLY-THR-PHE-ILE-SER-ASP-TYR-SER-ILE-ALA-MET-HIS-PRO-GLN-GLN-PRO-TRP-ILE-LEU-GLY-ALA-ALA-GLU-GLU-GLU-GLU-GLU-GLU (Y[dA]EGTFISDYSIAMHPQQPWILGAAEEEEEE; also: Gln side-chain L-Glu modification; listed as Homo sapiens) [GIP/Xenin Glu] | no significant change | dose-dependently stimulated | dose-dependently stimulated | 1000 | reduced | – | – | reduced | also reduced blood glucose concentrations, but not as effectively as GIP/Xenin Asp | more pronounced hypoglycaemic response | negative effects (P<0.05 to P<0.001) |
